“And” between values parts separate entries of the source, which are not always exact repeats. Identical values can stand only once. “Also recorded” adds a separate entry of the source. Positions of bridges follow the written chain, without caps; N, C: chain ends. Residues, ends and D or L forms follow the SMILES beside them.
Tests used:
[1] = target: T1, type 1 ryanodine receptor (RyR1) (Homo sapiens, UniProt P21817); format: biochemical; set-up: sMCa-modified channels blocked by ruthenium red: dose or concentration left out as unconfirmed; conditions: for reversibility of the induced subconductance states on perfusion of the cis chamber: channel modified by sMCa and ryanodine, trace 5
T1 construct: from tissue; host or cells: sarcoplasmic reticulum (SR) vesicles
T1 sequence (P21817 whole entry, species assumed, the tested form may be a part): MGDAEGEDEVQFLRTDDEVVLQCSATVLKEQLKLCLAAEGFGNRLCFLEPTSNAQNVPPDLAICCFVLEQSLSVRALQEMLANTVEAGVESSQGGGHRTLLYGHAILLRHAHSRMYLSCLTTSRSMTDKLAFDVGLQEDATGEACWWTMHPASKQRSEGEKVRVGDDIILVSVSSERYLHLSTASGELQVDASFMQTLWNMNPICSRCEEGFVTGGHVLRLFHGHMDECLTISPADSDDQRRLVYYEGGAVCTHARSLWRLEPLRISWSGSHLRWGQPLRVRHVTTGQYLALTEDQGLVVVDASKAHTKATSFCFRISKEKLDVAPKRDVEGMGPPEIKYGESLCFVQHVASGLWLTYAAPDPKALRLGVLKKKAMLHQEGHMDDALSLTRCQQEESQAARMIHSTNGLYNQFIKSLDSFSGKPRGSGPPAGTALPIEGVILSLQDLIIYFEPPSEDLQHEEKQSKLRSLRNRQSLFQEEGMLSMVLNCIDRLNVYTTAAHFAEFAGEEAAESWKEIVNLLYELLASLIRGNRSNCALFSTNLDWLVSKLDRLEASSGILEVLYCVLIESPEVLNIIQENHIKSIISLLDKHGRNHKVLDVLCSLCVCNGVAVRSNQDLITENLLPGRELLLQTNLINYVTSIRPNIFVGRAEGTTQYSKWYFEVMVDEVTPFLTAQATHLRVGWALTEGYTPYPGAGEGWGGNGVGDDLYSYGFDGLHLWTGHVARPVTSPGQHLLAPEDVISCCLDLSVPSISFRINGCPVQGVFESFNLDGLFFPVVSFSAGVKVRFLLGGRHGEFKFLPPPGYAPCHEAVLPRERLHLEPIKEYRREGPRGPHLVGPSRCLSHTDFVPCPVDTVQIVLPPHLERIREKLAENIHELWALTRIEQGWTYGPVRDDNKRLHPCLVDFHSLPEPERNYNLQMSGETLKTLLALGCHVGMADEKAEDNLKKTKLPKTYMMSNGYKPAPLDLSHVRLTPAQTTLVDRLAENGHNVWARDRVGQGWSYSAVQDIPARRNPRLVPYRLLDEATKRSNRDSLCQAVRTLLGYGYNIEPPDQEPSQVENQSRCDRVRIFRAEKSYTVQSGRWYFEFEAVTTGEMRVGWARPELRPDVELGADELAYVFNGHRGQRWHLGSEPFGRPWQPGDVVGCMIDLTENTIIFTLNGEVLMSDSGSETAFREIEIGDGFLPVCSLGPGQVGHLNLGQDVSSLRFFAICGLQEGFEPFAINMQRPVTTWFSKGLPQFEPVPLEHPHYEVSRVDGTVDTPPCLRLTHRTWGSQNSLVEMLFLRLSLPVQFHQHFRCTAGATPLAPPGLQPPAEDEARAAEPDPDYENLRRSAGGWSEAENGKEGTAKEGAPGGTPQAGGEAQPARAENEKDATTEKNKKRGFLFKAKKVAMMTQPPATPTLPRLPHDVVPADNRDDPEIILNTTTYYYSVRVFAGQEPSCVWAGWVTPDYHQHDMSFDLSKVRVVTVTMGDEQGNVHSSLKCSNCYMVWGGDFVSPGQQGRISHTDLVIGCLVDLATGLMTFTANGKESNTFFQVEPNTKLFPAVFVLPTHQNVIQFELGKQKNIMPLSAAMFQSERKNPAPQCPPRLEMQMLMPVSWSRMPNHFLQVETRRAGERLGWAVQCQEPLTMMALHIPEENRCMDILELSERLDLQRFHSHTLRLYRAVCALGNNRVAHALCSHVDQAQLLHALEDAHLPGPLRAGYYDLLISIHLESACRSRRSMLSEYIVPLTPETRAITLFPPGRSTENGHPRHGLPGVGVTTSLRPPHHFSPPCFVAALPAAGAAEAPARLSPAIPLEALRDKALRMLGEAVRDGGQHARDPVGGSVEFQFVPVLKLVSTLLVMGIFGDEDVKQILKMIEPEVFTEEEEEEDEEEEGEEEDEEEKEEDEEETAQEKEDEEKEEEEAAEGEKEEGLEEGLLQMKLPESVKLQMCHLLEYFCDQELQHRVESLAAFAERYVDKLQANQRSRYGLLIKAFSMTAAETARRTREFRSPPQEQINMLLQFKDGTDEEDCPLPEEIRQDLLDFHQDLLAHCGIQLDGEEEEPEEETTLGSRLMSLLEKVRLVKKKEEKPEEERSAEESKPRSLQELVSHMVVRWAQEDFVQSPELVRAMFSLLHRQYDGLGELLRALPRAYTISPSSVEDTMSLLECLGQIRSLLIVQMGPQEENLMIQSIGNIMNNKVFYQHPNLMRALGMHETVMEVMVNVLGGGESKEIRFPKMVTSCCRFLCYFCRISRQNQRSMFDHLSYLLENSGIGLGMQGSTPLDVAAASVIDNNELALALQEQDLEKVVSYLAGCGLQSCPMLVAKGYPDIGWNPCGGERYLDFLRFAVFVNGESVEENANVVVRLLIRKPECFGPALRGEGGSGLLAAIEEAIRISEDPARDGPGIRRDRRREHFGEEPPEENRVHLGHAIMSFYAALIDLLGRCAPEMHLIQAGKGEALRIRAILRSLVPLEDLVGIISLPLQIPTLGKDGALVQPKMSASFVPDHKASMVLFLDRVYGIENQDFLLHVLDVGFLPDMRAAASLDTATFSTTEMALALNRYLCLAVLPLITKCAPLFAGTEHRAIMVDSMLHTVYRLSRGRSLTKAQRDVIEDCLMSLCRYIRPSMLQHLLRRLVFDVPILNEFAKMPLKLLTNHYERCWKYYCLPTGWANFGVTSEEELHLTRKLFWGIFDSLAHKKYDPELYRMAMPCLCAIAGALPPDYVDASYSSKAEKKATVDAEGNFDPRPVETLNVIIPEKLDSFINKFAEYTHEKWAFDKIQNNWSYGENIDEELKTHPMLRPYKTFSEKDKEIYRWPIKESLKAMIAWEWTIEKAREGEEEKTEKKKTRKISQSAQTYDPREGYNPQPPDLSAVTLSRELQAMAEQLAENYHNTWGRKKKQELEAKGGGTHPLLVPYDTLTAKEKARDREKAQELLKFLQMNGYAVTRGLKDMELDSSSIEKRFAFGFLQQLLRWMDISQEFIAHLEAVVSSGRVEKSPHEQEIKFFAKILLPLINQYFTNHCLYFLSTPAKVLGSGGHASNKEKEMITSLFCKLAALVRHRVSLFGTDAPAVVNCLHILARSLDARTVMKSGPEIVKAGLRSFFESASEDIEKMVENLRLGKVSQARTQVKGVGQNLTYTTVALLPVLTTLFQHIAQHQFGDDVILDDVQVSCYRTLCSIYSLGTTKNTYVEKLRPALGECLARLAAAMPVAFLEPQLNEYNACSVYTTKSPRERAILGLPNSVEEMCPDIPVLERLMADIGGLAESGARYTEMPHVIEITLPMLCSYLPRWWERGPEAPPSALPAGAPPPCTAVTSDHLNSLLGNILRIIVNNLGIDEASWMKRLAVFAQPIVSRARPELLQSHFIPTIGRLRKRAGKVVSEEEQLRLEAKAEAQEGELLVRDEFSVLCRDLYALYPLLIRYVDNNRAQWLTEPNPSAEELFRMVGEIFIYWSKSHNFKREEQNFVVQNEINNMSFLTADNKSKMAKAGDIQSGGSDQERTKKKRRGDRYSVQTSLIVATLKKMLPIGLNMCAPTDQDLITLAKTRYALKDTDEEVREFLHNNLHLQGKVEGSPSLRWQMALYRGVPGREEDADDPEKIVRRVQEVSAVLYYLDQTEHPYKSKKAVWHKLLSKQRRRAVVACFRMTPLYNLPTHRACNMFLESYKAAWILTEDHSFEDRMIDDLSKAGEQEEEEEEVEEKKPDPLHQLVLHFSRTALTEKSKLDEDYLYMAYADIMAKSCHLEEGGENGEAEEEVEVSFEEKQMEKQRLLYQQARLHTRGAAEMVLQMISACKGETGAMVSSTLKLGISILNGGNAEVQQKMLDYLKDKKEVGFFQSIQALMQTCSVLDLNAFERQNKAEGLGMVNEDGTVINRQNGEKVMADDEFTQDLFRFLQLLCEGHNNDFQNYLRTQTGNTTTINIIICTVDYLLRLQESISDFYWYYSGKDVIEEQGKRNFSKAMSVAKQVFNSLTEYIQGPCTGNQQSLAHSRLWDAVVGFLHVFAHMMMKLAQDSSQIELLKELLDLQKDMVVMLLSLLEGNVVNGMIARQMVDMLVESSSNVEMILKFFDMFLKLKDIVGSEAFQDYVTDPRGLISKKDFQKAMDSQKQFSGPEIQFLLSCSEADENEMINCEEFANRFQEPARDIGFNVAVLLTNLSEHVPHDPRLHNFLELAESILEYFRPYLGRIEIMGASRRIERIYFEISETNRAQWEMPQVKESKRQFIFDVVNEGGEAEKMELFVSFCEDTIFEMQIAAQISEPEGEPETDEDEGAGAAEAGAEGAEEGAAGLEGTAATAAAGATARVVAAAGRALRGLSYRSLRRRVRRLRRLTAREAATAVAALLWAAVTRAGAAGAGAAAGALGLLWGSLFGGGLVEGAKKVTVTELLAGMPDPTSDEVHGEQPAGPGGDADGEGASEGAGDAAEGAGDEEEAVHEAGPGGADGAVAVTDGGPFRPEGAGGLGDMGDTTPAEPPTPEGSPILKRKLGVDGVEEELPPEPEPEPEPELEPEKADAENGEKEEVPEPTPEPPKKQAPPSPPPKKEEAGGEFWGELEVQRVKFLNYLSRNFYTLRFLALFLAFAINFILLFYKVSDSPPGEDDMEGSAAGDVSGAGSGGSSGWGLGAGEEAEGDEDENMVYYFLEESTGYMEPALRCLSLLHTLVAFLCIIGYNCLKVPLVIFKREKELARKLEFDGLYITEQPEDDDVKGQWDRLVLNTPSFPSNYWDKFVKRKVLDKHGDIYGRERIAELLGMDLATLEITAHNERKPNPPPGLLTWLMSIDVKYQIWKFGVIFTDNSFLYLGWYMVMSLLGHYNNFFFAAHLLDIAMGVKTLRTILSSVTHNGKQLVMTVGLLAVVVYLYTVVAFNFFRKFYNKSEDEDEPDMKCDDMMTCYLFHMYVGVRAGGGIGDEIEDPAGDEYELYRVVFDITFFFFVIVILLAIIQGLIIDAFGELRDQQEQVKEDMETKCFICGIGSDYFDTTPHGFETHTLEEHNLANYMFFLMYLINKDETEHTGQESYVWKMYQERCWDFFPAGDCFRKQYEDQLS
Procedure: Single-channel recording: Cs^+ current through single RyR1 channels incorporated into planar lipid bilayers (BLM) was measured in an asymmetric CsCl (10:1 cis:trans) solution. The BLM was formed from a mixture of phosphatidylethanolamine and phosphatidylcholine (5:2, w/w) at 30-50 mg/ml in decane, across a […] aperture in a 1.0 ml polystyrene cup. SR vesicles were added to the cis side of chamber at a final concentration of 0.1-10 mg/ml. The cis solution contained 500 mM CsCl, ˜7 mM CaCl2, 20 mM HEPES, pH 7.4, and the trans solution contained 50 mM CsCl, 7 mM free Ca^2+, 20 mM HEPES, pH 7.4. The monovalent cation Cs^+ was used as permeant ion instead of divalent cations (such as Ca^2+) owing to its better permeability through RyR1. After a single fusion event, sarcoplasmic reticulum (SR) vesicles in cis chamber were quickly removed by perfusion with 9× volume of is solution. Single-channel current was measured under voltage clamp using a Dagan 3900 amplifier (Dagan Instruments, Minneapolis, Minn.). Holding potentials were with respect to the trans (ground) chamber, and positive current was defined as current flowing from cis to trans. Current signals were captured at 10 kHz and filtered at 1 kHz using a four pole Bessel filter. Data was digitized with a Digidata 1200 interface (Axon Instruments, Burlingame, Calif.) and stored on computer for subsequent analysis. Unless otherwise stated, test chemicals were sequentially added to the cis solution after an initial period of recording control channel behaviour. Single channel activity was analyzed with pCLAMP 7.0 (Axon Instruments). Current levels were analyzed by mean-variance analysis and peaks in the all-points amplitude histogram were fitted with Gaussian functions. The all-points amplitude histograms were constructed from selected segments-of data 20-150 sec in length to quantify the incidence of full and subconductance states.
To test this hypothesis, we performed electrophysiological experiments on single RyR1 channels incorporated into planar lipid bilayers.

mice = assay: Lethality after intracerebroventricular injection in mice
[2] = target: T1, type 1 ryanodine receptor (RyR1); conditions: comparison with sMCa; cited from earlier work
[3] = sMCa and ryanodine (1 μM) both present

N.N.N.N.N.N.N.N.N.N.N.N.N.N.[Cl-].[Cl-].[Cl-].[Cl-].[Cl-].[Cl-].[O-2].[O-2].[Ru+3].[Ru+3].[Ru+4] [ruthenium red, reference compound]
block of the ryanodine/sMCa modified channel [1]: completely blocked | sMCa-modified channels blocked by ruthenium red ([1]; ruthenium red): Five out of six channels

CC[C@H](C)[C@@H]1NC(=O)[C@H](CC(N)=O)NC(=O)[C@H]([C@@H](C)O)NC(=O)CNC(=O)[C@H](CCCNC(=N)N)NC(=O)[C@H](CCCNC(=N)N)NC(=O)[C@H](CCCCN)NC(=O)[C@@H]2CSSC[C@@H]3NC(=O)[C@H](CC(C)C)NC(=O)[C@H](CCCCN)NC(=O)[C@H](CC(C)C)NC(=O)[C@H](Cc4c[nH]cn4)NC(=O)[C@@H]4CCCN4C(=O)[C@H](CC(C)C)NC(=O)[C@@H](NC(=O)[C@H](CC(=O)O)NC(=O)CN)CSSC[C@H](NC(=O)[C@H](CSSC[C@@H](C(=O)N[C@@H](CCCNC(=N)N)C(=O)O)NC(=O)[C@H](CCCNC(=N)N)NC(=O)[C@H](CCCCN)NC(=O)[C@H](CCC(=O)O)NC1=O)NC(=O)[C@H](CC(=O)O)NC(=O)[C@H](CCCCN)NC(=O)[C@H](CC(N)=O)NC(=O)[C@H](CCC(=O)O)NC(=O)[C@H](CCCCN)NC3=O)C(=O)N[C@@H](CO)C(=O)N[C@@H](CCCCN)C(=O)N[C@@H](CCCCN)C(=O)N2 [sMCa, maurocalcine] (H-GDCLPHLKLCKENKDCCSKKCKRRGTNIEKRCR-OH; disulfide 3-17, 10-21, 16-32)
LD50 (mice): 20 μg per mouse | reversibility of the induced subconductance states on perfusion of the cis chamber [1]: reversed the sMCa-induced quarter states | effect on RyR1 channel gating, toxin applied on the cis (cytoplasmic) side ([1]; nanomolar concentration (5 nM to 1 μM), cis chamber): dramatically modified the channel gating behavior; also recorded: potently and reversibly modifies channel gating behaviour; also recorded: potently activates RyR1 channels | minor subconductance induced, fraction of the full conductance level ([1]; sMCa alone, cis, to a smaller extent): one-quarter | predominant subconductance induced, fraction of the characteristic full conductance ([1]; sMCa alone, cis, traces 1-3): one-half | half subconductance, % of the characteristic control conductance level [1, 3]: ~50.5% and 51% | quarter subconductance, % of the characteristic control conductance level [1, 3]: ~29.3% and 29% | effect on RyR1, toxin applied on the trans (luminal) side ([1]; trans side): No effect

Imperatoxin A (GDCLPHLKRCKADNDCCGKKCKRRGTNAEKRCR; UniProt P59868 1-33, looked up) [IpTx A]
conductance state of RyR1 favoured [2]: ⅓

ryanodine [reference compound]
reversibility of the induced subconductance states on perfusion of the cis chamber [1]: ryanodine-mediated half-states persisted | sMCa-modified channels subsequently modified by ryanodine ([1]; ryanodine 1 μM): Four out of five channels

Source: patent publication US7319089B2, “Maurocalcine, analogues thereof and their therapeutical uses” (priority 2000, dated 2008)
